Reference: US20230301968A1 (ZEPHAPHARM LTD, priority 2020, published 2023)
Like-named read-outs stand apart in the source and are kept apart here.

Columns and labels:
[1] = test system: human liver microsomes; settings: cited from earlier work
[2] = in vitro; settings: human, hepatocytes; for half-life at 1 µM: t½
Procedure: (§1) In each assay, the amount of test compound remaining at each time point was analysed by LC-MS/MS.
(§2) The final incubation volume was 500 µL. […] A positive control compound, ethoxycoumarin, for CYP1A2 (as CYP1A2 substrate) was included. […] The reactions were stopped by transferring 50 µL of incubate to 100 µL acetonitrile containing internal standard at the appropriate time points (0, 5, 10, 20, 40 and 60 min). The termination plates were centrifuged at 2500 rpm at 4° C. for 30 min to precipitate the protein.
(§3) From a plot of In peak area ratio (compound peak area/internal standard peak area) against time, the gradient of the line was determined. Subsequently, half-life (t½) and intrinsic clearance (CLint) were calculated using the equations below: […]

[3] = test system: human cryopreserved hepatocytes; test: Stability in human cryopreserved hepatocytes with or without CYP1A2 inhibitors (assays 1 to 3); settings: for decrease of flubendazole metabolism in the presence of the inhibitor: cryopreserved human hepatocytes, 1 µM flubendazole, over all inhibitor concentrations tested; for class of CYP1A2 inhibitor of flubendazole metabolism: human hepatocytes ex vivo
Procedure: as §1, §2, §3

[4] = humans, cited from earlier work

SMILES | hepatocyte CLint at 1 µM ([2]; CLint) [µL/min/1e6 cells] | half-life at 1 µM [2] [min] | decrease of flubendazole metabolism in the presence of the inhibitor [3] | class of CYP1A2 inhibitor of flubendazole metabolism [3] | further results
CCC[S+]([O-])c1ccc2[nH]c(NC(=O)OC)nc2c1 (stereo not drawn) [Ricobendazole, albendazole sulfoxide] |  |  |  |  | turnover in human liver microsomes [1]: low turnover
CCOc1ccc2ccc(=O)oc2c1 | 25.4 | 54.5 |  |  | 
Cc1nc2c([nH]1)c(=O)n(C)c(=O)n2Cc1ccco1 [Furafylline, furafylline] |  |  | at least 4.2 fold | strong (inhibits intrinsic clearance (CLint) of flubendazole in human hepatocytes ex vivo by ≥five-fold) | increase in elimination half-life of caffeine ([4]; Tarrus et al., 1987): 7-10 fold
Cn1c(=O)c2c(ncn2C)n(C)c1=O [caffeine] |  |  |  |  | elimination half-life ([4]; with furafylline): 50 h; elimination half-life ([4]; without furafylline): 5 to 7 h
COCCCC/C(=N\OCCN)c1ccc(C(F)(F)F)cc1 [Fluvoxamine, fluvoxamine] |  |  | at least 2.2 fold | strong (inhibits intrinsic clearance (CLint) of flubendazole in human hepatocytes ex vivo by ≥five-fold) | 
O=c1ccc2ccc(O)cc2o1 [Umbelliferone, umbelliferone] | 136 ± 8.14 | 10.2 |  |  | hepatocyte CLint at 1 µM ([2]; intrinsic clearance): 129 ± 2.93 µL/min/1e6 cells; CLint ([3]; human, hepatocytes, 1 µM): 131±9.59 µL/min/10^6 cells; t½ ([3]; human, hepatocytes, 1 µM): 10.5 min
